Experimental findings from ChEMBL document CHEMBL1145582, “4,5-Disubstituted oxazolidinones: High affinity molecular effectors of RNA function” (Bioorg Med Chem Lett, 2008) are described below.

Assay [1] can be described thus: Binding affinity at RNAs 3'-Fl-18-Rh-AM1A T box antiterminator model RNA by FRET assay. Details: species or system Bacillus subtilis.
A short description of assay [2]: Binding affinity at 3'-Fl-18-Rh-C11U T box antiterminator model RNA by FRET assay. Details: species or system Bacillus subtilis.
Assay [3] addresses T1, Guanyl-specific ribonuclease T1 (Aspergillus oryzae (strain ATCC 42149 / RIB 40)) (UniProt P00651).
T1 sequence (whole entry): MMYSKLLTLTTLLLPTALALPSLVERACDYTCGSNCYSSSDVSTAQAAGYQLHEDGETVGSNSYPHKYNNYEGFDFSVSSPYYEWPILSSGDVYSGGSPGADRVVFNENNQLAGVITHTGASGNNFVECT
As to the kind of experiment: Enhancement of Aspergillus oryzae RNase T1 cleavage in position 15 of AM1A T box antiterminator model RNA.

In assay [4] the target is T1, Guanyl-specific ribonuclease T1 (Aspergillus oryzae (strain ATCC 42149 / RIB 40)). The assay is described as follows: Reduction of Aspergillus oryzae RNase T1 cleavage in position 7 of AM1A T box antiterminator model RNA. On the set-up: scale not given: the % may be the effect or the level left.
Another assay concerns Bacillus subtilis. As to the kind of experiment: Reduction of Bacillus subtilis tRNA-glycine-dependent antitermination at 1.3 mM in presence on RNA polymerase. Details: scale not given: the % may be the effect or the level left.
Assay [5] is described as follows: Binding affinity at AM1A T box antiterminator model RNA in presence of cognate tRNA. On the set-up: species or system Bacillus subtilis.
The target in assay [6] is T1, Guanyl-specific ribonuclease T1 (Aspergillus oryzae (strain ATCC 42149 / RIB 40)). The assay is described as follows: Reduction of Aspergillus oryzae RNase T1 induced cleavage at position 8 of AM1A T box antiterminator model RNA. On the set-up: scale not given: the % may be the effect or the level left.
For assay [7] the target is unchanged. The assay is described as follows: Reduction of Aspergillus oryzae RNase T1 cleavage in position 9 of AM1A T box antiterminator model RNA. Details: scale not given: the % may be the effect or the level left.
Assay [8] has the same target. As to the kind of experiment: Decrease in Aspergillus oryzae RNase T1 cleavage in AM1A T box antiterminator model RNA.

Active and inactive are the calls of the source. No cut-off for these calls is given here.

In the case of `O=C(Cc1ccccc1)OC[C@H]1OC(=O)N[C@@H]1CN1CCN(c2ccccc2)CC1`, the dissociation constant (Kd) (usually the constant that tells how readily two partners part at equilibrium) in assay [1] stood at 13 µM; in [2] it was 100 µM; in assay [5], 64 µM. The Activity in assay [3] is 70%; in [4], 44%; with Bacillus subtilis it was 40%; in [6], 41%; in assay [7], 57%.
Regarding `CN(C[C@H]1NC(=O)O[C@@H]1COC(=O)Cc1ccccc1)c1ccccc1`, the results for the Kd in assay [1] and in assay [2] were 61 µM and 122 µM, respectively.
For `CN(CCc1ccccc1)C[C@H]1NC(=O)O[C@@H]1COC(=O)Cc1ccccc1`, the Kd in [1] stood at 114 µM.
As to `CCCCCCCC(=O)OC[C@H]1OC(=O)N[C@@H]1CN(C)c1ccccc1`, the results for the Kd in assay [1] and in assay [2] were 6.6 µM and 4.1 µM, respectively.
With `O=C(Cc1ccccc1)OC[C@H]1OC(=O)N[C@@H]1Cc1ccccc1`, the Kd in assay [1] stood at 9 µM; in [2], 125 µM.
Turning to `CC(=O)c1ccc(NC(=O)OC[C@H]2OC(=O)N[C@@H]2CN2CCN(c3ccccc3)CC2)cc1`, the Kd was 0.9 µM in assay [1] and under 1 µM in [2]. The outcome in [8] was Active.
In assay [1], `O=C(Cc1ccccc1)OC[C@H]1OC(=O)N[C@@H]1CN1CCOCC1` returned a Kd of 42 µM.
